{"source": "patent US8163511B2", "about": "“Methods for the identification of LRRK2 interacting molecules” (CellZome AG, priority 2006, dated 2012)", "molecular_target": "T1, LRRK2 (Mus musculus, UniProt Q5S006)", "T1 construct": "from tissue; host or cells: mouse brain", "T1 sequence (Q5S006 whole entry V777I/K863N/C925Y/E1011G/E1190G/E1882G/Q2178N)": "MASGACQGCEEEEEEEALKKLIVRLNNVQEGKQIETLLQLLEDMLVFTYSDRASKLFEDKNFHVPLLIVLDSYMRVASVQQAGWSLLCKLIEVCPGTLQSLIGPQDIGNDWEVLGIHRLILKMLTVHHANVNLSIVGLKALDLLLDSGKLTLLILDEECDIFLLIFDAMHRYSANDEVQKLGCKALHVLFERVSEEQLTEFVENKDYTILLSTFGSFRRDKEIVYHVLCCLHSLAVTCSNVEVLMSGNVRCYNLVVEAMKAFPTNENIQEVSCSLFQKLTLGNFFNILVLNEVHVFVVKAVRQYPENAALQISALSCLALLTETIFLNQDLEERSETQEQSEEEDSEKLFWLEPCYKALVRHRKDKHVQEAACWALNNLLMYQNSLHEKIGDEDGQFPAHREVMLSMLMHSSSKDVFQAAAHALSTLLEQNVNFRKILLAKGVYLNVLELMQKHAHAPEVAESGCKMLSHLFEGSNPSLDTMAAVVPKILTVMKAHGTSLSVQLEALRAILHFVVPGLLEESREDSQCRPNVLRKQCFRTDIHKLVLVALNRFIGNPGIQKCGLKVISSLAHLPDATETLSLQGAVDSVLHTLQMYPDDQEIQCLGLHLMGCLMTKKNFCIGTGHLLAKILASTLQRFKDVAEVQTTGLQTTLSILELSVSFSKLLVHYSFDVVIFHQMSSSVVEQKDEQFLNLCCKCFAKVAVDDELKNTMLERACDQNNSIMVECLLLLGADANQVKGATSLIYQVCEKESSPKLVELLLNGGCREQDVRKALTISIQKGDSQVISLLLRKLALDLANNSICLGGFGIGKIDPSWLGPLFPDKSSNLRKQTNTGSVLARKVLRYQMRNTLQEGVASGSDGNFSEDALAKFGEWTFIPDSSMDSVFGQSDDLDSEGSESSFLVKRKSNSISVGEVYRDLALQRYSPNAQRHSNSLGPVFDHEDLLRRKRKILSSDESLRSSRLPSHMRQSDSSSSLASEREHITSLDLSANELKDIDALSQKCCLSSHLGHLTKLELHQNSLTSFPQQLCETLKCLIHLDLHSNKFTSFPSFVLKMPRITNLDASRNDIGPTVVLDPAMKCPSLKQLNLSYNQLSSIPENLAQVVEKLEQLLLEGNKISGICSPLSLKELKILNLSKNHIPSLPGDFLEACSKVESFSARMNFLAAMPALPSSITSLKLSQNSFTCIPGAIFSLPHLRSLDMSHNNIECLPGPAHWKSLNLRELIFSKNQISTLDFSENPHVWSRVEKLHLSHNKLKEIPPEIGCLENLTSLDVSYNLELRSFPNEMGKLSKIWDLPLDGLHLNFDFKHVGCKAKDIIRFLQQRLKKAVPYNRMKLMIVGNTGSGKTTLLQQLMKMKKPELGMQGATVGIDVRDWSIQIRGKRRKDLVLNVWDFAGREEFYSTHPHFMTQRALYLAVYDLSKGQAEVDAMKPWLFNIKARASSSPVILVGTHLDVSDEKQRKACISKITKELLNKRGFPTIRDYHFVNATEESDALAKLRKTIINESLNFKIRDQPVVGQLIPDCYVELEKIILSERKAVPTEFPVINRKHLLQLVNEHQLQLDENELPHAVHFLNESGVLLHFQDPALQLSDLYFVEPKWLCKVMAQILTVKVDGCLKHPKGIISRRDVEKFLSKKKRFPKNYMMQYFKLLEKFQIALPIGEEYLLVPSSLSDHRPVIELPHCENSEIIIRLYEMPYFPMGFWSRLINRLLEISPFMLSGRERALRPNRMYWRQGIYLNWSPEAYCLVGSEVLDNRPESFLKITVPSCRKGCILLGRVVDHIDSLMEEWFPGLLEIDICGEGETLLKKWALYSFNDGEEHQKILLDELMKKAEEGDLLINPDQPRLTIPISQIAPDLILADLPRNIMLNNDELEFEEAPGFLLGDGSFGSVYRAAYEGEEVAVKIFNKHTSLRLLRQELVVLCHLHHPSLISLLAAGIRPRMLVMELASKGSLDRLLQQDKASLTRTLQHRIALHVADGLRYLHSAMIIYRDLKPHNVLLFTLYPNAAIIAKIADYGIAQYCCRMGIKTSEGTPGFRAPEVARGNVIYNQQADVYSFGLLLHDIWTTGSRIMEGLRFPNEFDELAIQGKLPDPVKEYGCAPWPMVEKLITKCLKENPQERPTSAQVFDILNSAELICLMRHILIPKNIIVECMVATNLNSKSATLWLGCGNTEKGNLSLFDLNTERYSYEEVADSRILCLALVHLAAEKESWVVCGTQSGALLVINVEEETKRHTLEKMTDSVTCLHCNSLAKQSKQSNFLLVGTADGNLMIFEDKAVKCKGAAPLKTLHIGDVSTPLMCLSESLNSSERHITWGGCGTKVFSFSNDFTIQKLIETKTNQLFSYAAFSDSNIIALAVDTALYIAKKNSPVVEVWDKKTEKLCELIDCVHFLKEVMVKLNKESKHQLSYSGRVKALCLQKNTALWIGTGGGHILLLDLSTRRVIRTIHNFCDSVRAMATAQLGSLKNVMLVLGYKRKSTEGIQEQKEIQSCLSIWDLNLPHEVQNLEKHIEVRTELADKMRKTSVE", "experiment": "Drug pulldown with immobilized indol ligand 91 and identification of LRRK2 by LC-MS/MS", "type": "binding", "details": "ligand covalently attached to Sepharose beads, mouse brain lysate, SDS elution, SDS-PAGE, twelve LRRK2 peptides identified", "description": "Proteins binding to immobilized indol ligand 91 were identified using a chemical proteomics procedure. Binding proteins were purified on a resin to which indol ligand 91 was covalently attached. Bound proteins were eluted and subsequently separated by SDS-Polyacrylamide gel elecrophoresis (see FIG. 2), suitable gel bands were cut out and proteins were analyzed by LC-MS/MS mass spectrometry.\nNHS-activated Sepharose 4 Fast Flow (Amersham Biosciences, 17-0906-01) was equilibrated with anhydrous DMSO (Dimethylsulfoxid, Fluka, 41648, H20<=0.005%). 1 ml of settled beads were placed in a 15 ml Falcon tube, compound stock solution (usually 100 mM in DMF or DMSO) was added (final conc. 0.2-2 μmol/ml beads) as well as 15 μl of TEA. Beads were incubated at room temperature in darkness on an end-over-end shaker (Roto Shake Genie, Scientific Industries Inc.) for 16-20 hours. Coupling efficiency was determined by HPLC. […]\nMouse brain tissue was homogenized in a Potter S homogenizer (5 ml per brain): 50 mM Tris-HCl, 1% CHAPSO, 5% glycerol, 150 mM NaCl, 1.5 mM MgCl2, 25 mM NaF, 1 mM sodium vanadate, 1 mM DTT, pH 7.5. […] The supernatant was transferred again to a fresh 50 ml falcon tube, the protein concentration was determined by a Bradford assay (BioRad) and samples containing 50 mg of protein per aliquot were prepared. […]", "data": [{"smiles": "Cc1[nH]c(/C=C2\\C(=O)Nc3ccc(F)cc32)c(C)c1C(=O)NCCCN", "note": "[indol ligand 91, 5-[5-Fluoro-2-oxo-1,2-dihydro-indol-(3Z)-ylidenemethyl]-2,4-dimethyl-1H-pyrrole-3-carboxylic acid (3-amino-propyl)-amide]", "values": [{"measurement": "enrichment/identification of LRRK2 bound to the immobilized ligand", "value": "can be used to enrich and characterize LRRK2 from mouse brain lysates"}]}]}
